Data published in a melting point compilation (Tetko et al.; mined from patent text by program, amines drawn as free bases though some values may be those of a salt).

| Structure (SMILES) | melting point [°C] |
| --- | --- |
| Cc1cc(C2=NOC(c3cc(Cl)cc(Cl)c3)(C(F)(F)F)C2)ccc1F (stereo not given) | 72 to 74 |
| COc1ccccc1OCC1SCCN1C(=O)CBr (stereo not given) | 82 to 84 |
| O=C(O)CCc1cn(Cc2ccc(OCc3coc(-c4ccccc4)n3)cc2)cc1-c1ccccc1 | 139 to 140 |
| CCCc1c(OCCCCCCc2cc(C)c(O)c(O)c2C)ccc(C(=O)OCC)c1O | 61 to 64 |
| O=C(O)/C=C/c1ccc(OCc2ccccc2)cc1OCc1ccccc1 | 153 to 155 |
| CC(=O)N1C=CC(C(C)=O)(c2ccccc2)C=C1 | 93 to 95 |
| O=C(O)C(=O)C=Cc1ccccc1F | 100 to 102 |
| Cc1[nH]c(=O)ccc1-c1ccc(O)c([N+](=O)[O-])c1 | 260 to 262 |
| CN1C(O)=C(c2ccccc2)N=NC1(C)N (stereo not given) | 91 |
| COc1c(N2CC3CCC(N)C3C2)c(F)cc2c(=O)n(N)c(=O)n(C3CC3)c12 (stereo not given) | 250 to 252 |
| CCCn1nc(C2CC2)c(C(=O)OCC)c1Cc1ccc(-c2ccccc2-c2nnn[nH]2)cc1 | 148 to 149 |
| CN1C(=O)NC(=O)C(C=O)C1=O (stereo not given) | 197 to 199 |
| CS(=O)(=O)c1ccc(-c2cnn(CC=Cc3ccccc3)c(=O)c2-c2ccc(F)cc2)cc1 | 165 to 167 |
| CC(O)CC#Cc1ccc(C(CC2CCCC2)C(=O)O)cc1 (stereo not given) | 73 to 76 |
| CC(=O)N1CCN(Cc2cc(C)c(O)c(C)c2)CC1 | 150 to 151 |
| CC1(C)OC(=O)Nc2c(F)cc(-c3csc(C#N)c3)cc21 | 250 to 251 |
| COC(=O)CCc1ccc(N2CCN(c3ccc(CN)cc3C)C2=O)cc1 | > 275 |
| CCCCc1cc(=O)oc2cc(O)cc(O)c12 | 236 to 237 |
| CN(C)C=CC(=O)c1ccc(OC[C@H]2CO[C@](Cn3ccnc3)(c3ccc(Cl)cc3Cl)O2)cc1 (relative stereo) | 145 |
| O=C(NN=Cc1c(O)ccc2ccccc12)c1ccccc1O | 265 |
| CC1=CN2CCS(=O)(=O)N=C2C(c2ccc(OC3CCCCC3)cc2)=N1 | 216 to 217 |

| Structure (SMILES) | melting point [°C] |
| --- | --- |
| Cc1ncn(-c2ccc(C=O)cc2)n1 | 125 to 128 |
| CSC(=O)NCc1c[nH]c2ccccc12 | 110 to 111 |
| CCNC(=O)N1CCC(c2cc(F)ccc2F)(S(=O)(=O)c2ccc(Cl)cc2)CC1 | 172 to 174 |
| O=c1[nH]c2ccc(OC3CCCC3)cc2n1C1CCCCC1 | 242 |
| O=c1c2c(N3CCNCC3)cc(Cl)cc2n(Cc2ccccc2)c(=O)n1Cc1ccccc1F | 98 to 109 |
| O=C1Cc2cccc(Oc3ccccc3O)c2O1 | 150 to 152 |
| CCN(CC)c1ccc(/C=C/c2c(F)cccc2F)cc1 | 70 to 71 |
| CCC(CC)C(NS(=O)(=O)c1ccc(Cl)s1)c1ncnn1Cc1ccc(C)cc1 (stereo not given) | 103 to 104 |
| Cc1ccc(-c2nc(CCl)c(C)o2)cc1 | 91 to 93 |
| NS(=O)(=O)c1ccc(-n2nc(C(F)(F)F)cc2-c2ccc(-c3cscn3)cc2)cc1 | 188 to 190 |
| O=[N+]([O-])c1ccc(C=Cc2ccc(N3CCOCCOCCOCCOCCOCC3)cc2)c([N+](=O)[O-])c1 | 90 to 91 |
| OCc1ccc(I)nc1 | 102 |
| C[C@H](NC(CCC(=O)O)C(=O)O)C(=O)N1CCC[C@H]1C(=O)O (stereo not given in full) | 140 to 160 |
| CCCCC(CC)COC(=O)c1cc(CN(CC(=O)O)CC(=O)O)c(O)c(CN(CC(=O)O)CC(=O)O)c1 (stereo not given) | 133 to 141 |
| CN(C)C=Nc1c(Cl)cc(N=Cc2ccc(N(C)C)cc2Cl)cc1Cl | 139 to 140 |
| O=C(O)C1=Cc2cc(OC(F)(F)F)ccc2NC1C(F)(F)F (stereo not given) | 128 to 129 |
| CN=C(O)c1c(Cl)c(Cl)c(Sc2ccc(C)cc2)c(Cl)c1C(=O)O | 209 to 216 |
| COc1ccc(CCN2CCC(C(O)(c3cccs3)c3cccs3)CC2)cc1 | 153 to 155 |
| COc1cc(OCc2ccccc2)c(C23CC4CC(CC(C4)C2)C3)cc1Br | 124 to 126 |
| O=C(O)c1cc(O)c(C(=O)c2ccccc2)c([N+](=O)[O-])c1 | 264 to 266 |
| CC1(C)C(C(=O)O)C1C(OS(C)(=O)=O)C(Br)(Br)Br (stereo not given) | 168 |

| Structure (SMILES) | melting point [°C] |
| --- | --- |
| CC(=O)c1cnc(Cl)c(Cl)c1 | 80 |
| CCOC(=O)N1CCN(c2nc(NC3CC3)ccc2[N+](=O)[O-])CC1 | 100 to 103 |
| CCCCCC(=O)O[C@H]1C[C@H](O)C=C2C=C[C@H](C)[C@H](CC[C@@H]3C[C@@H](O)CC(=O)O3)[C@H]21 | 138 to 139 |
| O=c1[nH]c2c(c(O)c1[N+](=O)[O-])CCCCC2 | > 264 |
| CC1(C(N)=O)CCC=[N+]1[O-] (stereo not given) | 134 to 135 |
| Cc1[nH]c(/C=C2\C(=O)Nc3cc(NC(=O)NC(=O)c4ccccc4)ccc32)c(C)c1C(=O)O | 270 to 275 |
| O=C(NCCO)c1cc(Cl)c(O)c(Cl)c1 | 174 to 178 |
| CCOc1noc(-c2ncn(C(c3ccccc3)(c3ccccc3)c3ccccc3)n2)c1C | 181 to 183 |
| c1ccc(-c2cnn3cc(-c4ccc(CCCN5CCOCC5)cc4)cnc23)cc1 | 147 to 149 |
| Cc1c(F)c(F)c(CNc2ccc(O)c(C(=O)O)c2)c(F)c1F | 212 |
| CCC(=O)Oc1cc([N+](=O)[O-])cc([N+](=O)[O-])c1OC(=O)CC | 72 to 73 |
| CN1CC=C(c2c[nH]c3ccc(NC(=O)c4ccc(Cl)cc4)cc23)CC1 | 224 to 226 |
| Nc1cc(F)ccc1NC(c1ccccc1)c1ccccc1 | 120 |
| COC(=O)c1cc(CC(C)NCC(O)c2ccc(O)c(CO)c2)ccc1OC (stereo not given) | 69 to 73 |
| OCCNC(c1ccccc1)(c1ccccc1)c1ccccc1 | 94 to 97 |
| O=C(O)CCc1[nH]nc2c1CCCCC2 | 102 to 105 |
| CN(C)c1ncnc2c(O)cccc12 | 104 to 105 |
| O=[N+]([O-])c1cc(Cl)c(N=C=S)c(Cl)c1 | 74 to 77 |
| CC(C)C(=O)N[C@@H](CS)C(=O)NCCSC(=O)C(C)C | 125 to 127 |
| O=C1N(Cc2ccc(C(F)(F)F)o2)c2ccccc2C12COc1cc3c(cc12)CCO3 (stereo not given) | 64 to 65 |
| COC(=O)c1cc(N)c(C#N)s1 | 187 to 189 |

Continued, values first:

| melting point [°C] | Structure (SMILES) |
| --- | --- |
| 176 | CCn1c(=O)c2ccccc2n2cnc(-c3nc(COC)no3)c12 |
| 214 to 217 | CC(C)(COc1ccc(Cl)cc1)C(=O)C(Oc1ccc(Cl)cc1)n1ccnc1 (stereo not given) |
| 69 to 70 | COc1ccc(COc2nc(Cl)c(C(C)C)c(OCc3ccc(OC)cc3)n2)cc1 |
| 123 to 124 | C[C@]12CCC(=O)N[C@@H]1CCc1cc(-c3ccc([N+](=O)[O-])cn3)ccc12 |
| 145 to 147 | N#Cc1c(F)ccc(OCc2nc3cc(Cl)ccc3s2)c1F |
| 129 to 130 | O=C1NCC(C(F)(F)F)C(=O)N1Cc1ccccc1 (stereo not given) |
| 144 to 145 | CSC(Oc1cc2cc(Br)cnc2cc1F)C(=O)NC(C)(C)C (stereo not given) |
| 213 | Nc1nc(-c2ccccc2)c2cc(Cl)cc(Cl)c2n1 |
| 154 | COC(=O)COc1cc(C(=O)OC)nc2cc(Cl)ccc12 |
| 172 to 174 | CCOC(=O)c1cc2n(c1)CN(C(=O)OCC)c1c(OC)cccc1-2 |
| 77 to 78 | COc1ccc(OCCCBr)c(C2Sc3ccccc3N(C)C2=O)c1 (single isomer, unassigned; (-)) |
| 193 to 195 | CC(=O)Oc1cc2c(c3ccccc13)Nc1ccc(C)cc1S2 |
| 177 | CC(C)(C)OC(=O)n1cccc1-c1ccc2c(c1)C1(CCCCC1)C(=O)N2 |
| 161 to 162 | Nc1cccc(-c2cc(NC(=O)c3cccs3)nc(-c3ccccc3O)c2)c1 |
| 140 to 141 | COC(=O)c1ccccc1S(=O)(=O)NC(=O)Nc1nc(C)cc(CO)n1 |
| 220 to 222 | C[C@]12CCC(=O)N[C@@H]1CCc1cc(Sc3ccc4ccccc4n3)ccc12 |
| 116 | COC(=O)C1=C(C)N(CCOC(=O)c2ccccc2)C(=O)NC1c1ccc2ccccc2c1 (stereo not given) |
| 172 to 173 | CC(C)(C)c1cc(O)cc(C(C)(C)C)c1S(=O)c1nnc(-c2ccccn2)o1 (stereo not given) |
| 228 to 230 | CC(C)Cn1c(CN)c(-c2ccccc2)c2cc(/C=C/C(N)=O)ccc2c1=O |

| melting point [°C] | Structure (SMILES) |
| --- | --- |
| 220 | Cn1c(C(=O)O)cc(=O)c2oc3ccccc3c(=O)c21 |
| 182 to 183 | COC(=O)C(=Cc1c[nH]c2cc(C)ccc12)NC(C)=O |
| 243 to 245 | COc1cc(Nc2c(NC(C)C(C)(C)C)c(=O)c2=O)c2ncccc2c1 (stereo not given) |
| 232 to 233 | CC(C)Oc1ccc2c(c1)N(C)C(=O)N(c1ccc(CC(=O)O)cc1)S2(=O)=O |
| 148 to 149 | COc1cc(C2C(=O)N(C)Cc3cc4c(cc32)OCCO4)cc(OC)c1OC (stereo not given) |
| 130 to 133 | N#Cc1cccc(Oc2ncccc2O)c1 |
| 183 to 185 | COc1ccc2c(c1)CCC1C2CCC2(C)C(=NNS(=O)(=O)c3ccccc3)CCC12 (stereo not given) |
| 278 to 280 | CCN1CCN(Cc2ccc(-c3nc4cc(OC)cc(OC)c4c(=O)[nH]3)cc2)CC1 |
| 83 to 84 | CCN(CC)C(=O)n1cc(Br)c(S(=O)(=O)c2cc(C)ccc2C)n1 |
| 56 to 57 | CC(C)(C)c1ccc(OCCCCCCCCCCC(Cl)(Cl)C(=O)O)cc1 |
| 170 to 172 | Cc1cccc(Nc2cc(Cl)nc(SCC(=O)NC(C)CO)n2)c1C (stereo not given) |
| 223 to 224 | CCc1c(-c2ccc(OCc3ccccc3)cc2)c2cc(C(=O)O)c3cccc1n32 |
| 179 to 180 | CC(C)CC(=O)Nc1c(C(=O)c2cccc(C(F)(F)F)c2)[nH]c2cc(Cl)ccc12 |
| 132 | CCOC(=O)CC(CC(=O)OCC)N1CCC(Nc2ncc3ncnc(Nc4cccc(Br)c4)c3n2)CC1 |
| 190 | CCOC(=O)c1cc(NCc2c(C)cccc2C)c2nc(C)n(C)c2c1 |
| 184 to 186 | CCCCC(O)Cc1c(O)c2cccnc2n(-c2ccccc2)c1=O (stereo not given) |
| 158 to 159 | CC(C)(C)c1cc(C(c2cc(C(C)(C)C)c(O)c(C(C)(C)C)c2)c2ccco2)cc(C(C)(C)C)c1O |
| 140 to 142 | Cc1cc(Cl)ccc1NS(=O)(=O)c1cc(S(=O)(=O)Nc2ccc(Cl)cc2C)c2cc(O)ccc2c1 |
